Measurements reported in ChEMBL document CHEMBL3046832, “Synthesis of some sulfonamides, disubstituted sulfonylureas or thioureas and some structurally related variants. A class of promising antitumor agents” (2007).

Legend:
Type in all cases: functional
SF-268 [1] = test: Cytotoxicity against Homo sapiens (human) SF268 cells after 48 hr by SRB assay; conditions: SF-268, 48 h
SW-620 = test: Cytotoxicity against Homo sapiens (human) SW620 cells after 48 hr by SRB assay; conditions: SW-620, 48 h
NCI-H460 [2] = test: Cytotoxicity against Homo sapiens (human) NCI-H460 cells after 48 hr by SRB assay; conditions: NCI-H460, 48 h
786-0 = test: Cytotoxicity against Homo sapiens (human) 786-0 cells after 48 hr by SRB assay; conditions: 786-0, 48 h
BT-549 = test: Cytotoxicity against Homo sapiens (human) BT549 cells after 48 hr by SRB assay; conditions: BT-549, 48 h
MCF7 [3] = test: Cytotoxicity against Homo sapiens (human) MCF7 cells assessed as cellular growth after 48 hr by Alamar blue assay; set-up: concentration or dose not given beside the values
SK-MEL-2 = test: Cytotoxicity against Homo sapiens (human) SK-MEL-2 cells after 48 hr by SRB assay; conditions: SK-MEL-2, 48 h
[4] = Cytotoxicity against Homo sapiens (human) CNS cancer cells after 48 hr by SRB assay; conditions: Cancer cell lines
KM12 = test: Cytotoxicity against Homo sapiens (human) KM12 cells after 48 hr by SRB assay; conditions: KM12, 48 h
DU-145 = test: Cytotoxicity against Homo sapiens (human) DU145 cells after 48 hr by SRB assay; conditions: DU-145, 48 h
SN12C = test: Cytotoxicity against Homo sapiens (human) SN12C cells after 48 hr by SRB assay
T47D = test: Cytotoxicity against Homo sapiens (human) T47D cells after 48 hr by SRB assay
UACC-257 = test: Cytotoxicity against Homo sapiens (human) UACC257 cells after 48 hr by SRB assay; conditions: UACC-257, 48 h
UO-31 = test: Cytotoxicity against Homo sapiens (human) UO31 cells after 48 hr by SRB assay; conditions: UO-31, 48 h
SK-OV-3 = test: Cytotoxicity against Homo sapiens (human) SKOV3 cells after 48 hr by SRB assay; conditions: SK-OV-3, 48 h
OVCAR-8 = test: Cytotoxicity against Homo sapiens (human) OVCAR8 cells after 48 hr by SRB assay; conditions: OVCAR-8, 48 h
UACC-62 = test: Cytotoxicity against Homo sapiens (human) UACC62 cells after 48 hr by SRB assay; conditions: UACC-62, 48 h
SNB-19 = test: Cytotoxicity against Homo sapiens (human) SNB19 cells after 48 hr by SRB assay; conditions: SNB-19, 48 h
SK-MEL-28 = test: Cytotoxicity against Homo sapiens (human) SK-MEL-28 cells after 48 hr by SRB assay; conditions: SK-MEL-28, 48 h
Hs-578T = test: Cytotoxicity against Homo sapiens (human) Hs578T cells after 48 hr by SRB assay
SF-268 [5] = test: Cytotoxicity against Homo sapiens (human) SF268 cells assessed as cellular growth after 48 hr by Alamar blue assay; set-up: concentration or dose not given beside the values
CAKI-1 = test: Cytotoxicity against Homo sapiens (human) Caki1 cells after 48 hr by SRB assay; conditions: CAKI-1, 48 h
[6] = Cytotoxicity against Homo sapiens (human) breast cancer cells after 48 hr by SRB assay; conditions: Cancer cell lines
[7] = Cytotoxicity against Homo sapiens (human) leukemia cells after 48 hr by SRB assay; conditions: Leukemia cell
[8] = Cytotoxicity against Homo sapiens (human) renal cancer cells after 48 hr by SRB assay; conditions: Cancer cell lines
OVCAR-4 = test: Cytotoxicity against Homo sapiens (human) OVCAR4 cells after 48 hr by SRB assay; conditions: OVCAR-4, 48 h
ACHN = test: Cytotoxicity against Homo sapiens (human) ACHN cells after 48 hr by SRB assay
HCT-15 = test: Cytotoxicity against Homo sapiens (human) HCT15 cells after 48 hr by SRB assay; conditions: HCT-15, 48 h
NCI-H522 = test: Cytotoxicity against Homo sapiens (human) NCI-H522 cells after 48 hr by SRB assay; conditions: NCI-H522, 48 h
NCI-H460 [9] = test: Cytotoxicity against Homo sapiens (human) NCI-H460 cells assessed as cellular growth after 48 hr by Alamar blue assay; set-up: concentration or dose not given beside the values
CCRF-CEM = test: Cytotoxicity against Homo sapiens (human) CCRF-CEM cells after 48 hr by SRB assay
OVCAR-5 = test: Cytotoxicity against Homo sapiens (human) OVCAR5 cells after 48 hr by SRB assay; conditions: OVCAR-5, 48 h
MDA-MB-435 = test: Cytotoxicity against Homo sapiens (human) MDA-MB-435 cells after 48 hr by SRB assay; conditions: MDA-MB-435, 48 h
[10] = Cytotoxicity against Homo sapiens (human) melanoma cells after 48 hr by SRB assay; conditions: Melanoma cell
SF-539 = test: Cytotoxicity against Homo sapiens (human) SF539 cells after 48 hr by SRB assay; conditions: SF-539, 48 h
HT-29 = test: Cytotoxicity against Homo sapiens (human) HT-29 cells after 48 hr by SRB assay; conditions: HT-29, 48 h
RXF 393 = test: Cytotoxicity against Homo sapiens (human) RXF393 cells after 48 hr by SRB assay; conditions: RXF 393, 48 h
MCF7 [11] = test: Cytotoxicity against Homo sapiens (human) MCF7 cells after 48 hr by SRB assay; conditions: MCF7, 48 h
SF-295 = test: Cytotoxicity against Homo sapiens (human) SF295 cells after 48 hr by SRB assay; conditions: SF-295, 48 h
HOP-62 = test: Cytotoxicity against Homo sapiens (human) HOP62 cells after 48 hr by SRB assay; conditions: HOP-62, 48 h
EKVX = test: Cytotoxicity against Homo sapiens (human) EKVX cells after 48 hr by SRB assay
COLO 205 = test: Cytotoxicity against Homo sapiens (human) COLO205 cells after 48 hr by SRB assay; conditions: COLO 205, 48 h
[12] = Cytotoxicity against Homo sapiens (human) NCI-H322 cells after 48 hr by SRB assay; conditions: NCI-H322, 48 h
[13] = Cytotoxicity against Homo sapiens (human) NCI-ADR-RES cells after 48 hr by SRB assay
RPMI-8226 = test: Cytotoxicity against Homo sapiens (human) RPMI8226 cells after 48 hr by SRB assay; conditions: RPMI-8226, 48 h
[14] = Cytotoxicity against Homo sapiens (human) ovarian cancer cells after 48 hr by SRB assay; conditions: Cancer cell lines
HOP-92 = test: Cytotoxicity against Homo sapiens (human) HOP92 cells after 48 hr by SRB assay; conditions: HOP-92, 48 h

Compound `O=C(Nc1ccccc1)NS(=O)(=O)c1ccc(N2N=C3c4ccccc4CC3C2c2cccnc2)cc1` (stereo not drawn) has a GI50 (SF-268 [1]) of 62.1 µM, a GI50 (SW-620) of 34 µM and a GI50 (NCI-H460 [2]) of 38.5 µM. For the same compound, the GI50 (786-0) was 35.5 µM, the GI50 (BT-549) was 30.6 µM and the Activity (MCF7 [3]) was “<=32%”. For the same compound, the GI50 (SK-MEL-2) was 35.6 µM, the GI50 [4] was 54.8 µM and the TGI [4] was 87.6 µM. For the same compound, the GI50 (KM12) was 24.8 µM, the GI50 (DU-145) was 36.6 µM and the GI50 (SN12C) was 30.4 µM. The GI50 (T47D) was 93 µM, the GI50 (UACC-257) was 26.6 µM and the GI50 (UO-31) was 48.8 µM. It also gave a GI50 (SK-OV-3) greater than 100 µM, a GI50 (OVCAR-8) of 27 µM and a GI50 (UACC-62) of 17.8 µM. For the same compound, the GI50 (SNB-19) was 83.9 µM, the GI50 (SK-MEL-28) was 71.5 µM and the GI50 (Hs-578T) was 40.7 µM. The Activity (SF-268 [5]) was “<=32%”, the GI50 (CAKI-1) was 26.4 µM and the GI50 [6] was 42.4 µM. It also gave a TGI [6] of 87.8 µM, a GI50 [7] of 26.5 µM and a TGI [7] of 91.4 µM. For the same compound, the GI50 [8] was 31.7 µM, the TGI [8] was 86.4 µM and the GI50 (OVCAR-4) was greater than 100 µM. It also gave a GI50 (ACHN) of 23.6 µM, a GI50 (HCT-15) of 23.1 µM and a GI50 (NCI-H522) of 17.7 µM. For the same compound, the Activity (NCI-H460 [9]) was “<=32%”, the GI50 (CCRF-CEM) was 40.9 µM and the GI50 (OVCAR-5) was 26.8 µM. The GI50 (MDA-MB-435) was 21.4 µM, the GI50 [10] was 30.8 µM and the TGI [10] was 49.3 µM. The GI50 (SF-539) was 30.6 µM, the GI50 (HT-29) was 37.9 µM and the GI50 (RXF 393) was 45.3 µM. It also gave a GI50 (MCF7 [11]) of 27 µM, a GI50 (SF-295) of 20.6 µM and a GI50 (HOP-62) of 20.4 µM. It also gave a GI50 (EKVX) of 27.8 µM, a GI50 (COLO 205) of 31.1 µM and a GI50 [12] of 17.3 µM. For the same compound, the GI50 [13] was 64.4 µM, the GI50 (RPMI-8226) was 27.1 µM and the GI50 [14] was 48.6 µM. The TGI [14] was 90.8 µM and the GI50 (HOP-92) was 74.9 µM.
